Source: publication PMC5290327, “SC83288 is a clinical development candidate for the treatment of severe malaria” (Nature Communications, 2017)

Key:
Assay in all cases: KINOMEscan
Type in all cases: binding
Settings in all cases: read-out: Remaining enzyme activity
[1] = target: T1, MAP4K4 (Homo sapiens, UniProt O95819)
T1 construct: purchased Ambit (DiscoverX) KINOMEscan; Cerep
How it was run: (§1)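 Three components per well: DNA-labelled kinase, bead-bound ligand, compound (SC81458, 10 μM final). Blocking buffer: SeaBlock, 1% BSA, 0.05% Tween 20, 1 mM DTT. Readout = qPCR of kinase in eluate.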

[2] = target: T2, SRPK2 (Homo sapiens, UniProt P78362)
T2 construct: purchased Ambit (DiscoverX) KINOMEscan; Cerep
How it was run: as §1

[3] = target: T3, CAMK1 (Homo sapiens, UniProt Q14012)
T3 construct: purchased Ambit (DiscoverX) KINOMEscan; Cerep
How it was run: as §1

[4] = target: T4, MEK3 (Homo sapiens, UniProt P46734)
T4 construct: purchased Ambit (DiscoverX) KINOMEscan; Cerep
T4 sequence (P46734 whole entry): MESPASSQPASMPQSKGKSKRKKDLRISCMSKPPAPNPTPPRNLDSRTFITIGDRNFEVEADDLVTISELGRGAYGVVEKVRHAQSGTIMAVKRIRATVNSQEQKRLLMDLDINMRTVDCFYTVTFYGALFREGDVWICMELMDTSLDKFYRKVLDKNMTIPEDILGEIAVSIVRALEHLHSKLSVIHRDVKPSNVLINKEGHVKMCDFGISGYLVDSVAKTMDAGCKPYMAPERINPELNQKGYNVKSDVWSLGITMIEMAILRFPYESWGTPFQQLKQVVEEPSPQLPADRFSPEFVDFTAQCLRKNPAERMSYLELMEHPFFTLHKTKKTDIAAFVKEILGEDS
How it was run: as §1

[5] = target: T5, GSK3b (Homo sapiens, UniProt P49841)
T5 construct: purchased Ambit (DiscoverX) KINOMEscan; Cerep
How it was run: as §1

[6] = target: T6, ERK8 (Homo sapiens, UniProt Q8TD08)
T6 construct: purchased Ambit (DiscoverX) KINOMEscan; Cerep
How it was run: as §1

[7] = target: T7, PIK3CA(C420R) (Homo sapiens, UniProt P42336, C420R)
T7 construct: purchased Ambit (DiscoverX) KINOMEscan; Cerep
How it was run: as §1

[8] = target: T8, FER (Homo sapiens, UniProt P16591)
T8 construct: purchased Ambit (DiscoverX) KINOMEscan; Cerep
How it was run: as §1

[9] = target: T9, PLK4 (Homo sapiens, UniProt O00444)
T9 construct: purchased Ambit (DiscoverX) KINOMEscan; Cerep
How it was run: as §1

[10] = target: T10, EGFR(L861Q) (Homo sapiens, UniProt P00533, L861Q)
T10 construct: purchased Ambit (DiscoverX) KINOMEscan; Cerep
How it was run: as §1

[11] = target: T11, RET (Homo sapiens, UniProt P07949)
T11 construct: purchased Ambit (DiscoverX) KINOMEscan; Cerep
T11 sequence (P07949 29-1114): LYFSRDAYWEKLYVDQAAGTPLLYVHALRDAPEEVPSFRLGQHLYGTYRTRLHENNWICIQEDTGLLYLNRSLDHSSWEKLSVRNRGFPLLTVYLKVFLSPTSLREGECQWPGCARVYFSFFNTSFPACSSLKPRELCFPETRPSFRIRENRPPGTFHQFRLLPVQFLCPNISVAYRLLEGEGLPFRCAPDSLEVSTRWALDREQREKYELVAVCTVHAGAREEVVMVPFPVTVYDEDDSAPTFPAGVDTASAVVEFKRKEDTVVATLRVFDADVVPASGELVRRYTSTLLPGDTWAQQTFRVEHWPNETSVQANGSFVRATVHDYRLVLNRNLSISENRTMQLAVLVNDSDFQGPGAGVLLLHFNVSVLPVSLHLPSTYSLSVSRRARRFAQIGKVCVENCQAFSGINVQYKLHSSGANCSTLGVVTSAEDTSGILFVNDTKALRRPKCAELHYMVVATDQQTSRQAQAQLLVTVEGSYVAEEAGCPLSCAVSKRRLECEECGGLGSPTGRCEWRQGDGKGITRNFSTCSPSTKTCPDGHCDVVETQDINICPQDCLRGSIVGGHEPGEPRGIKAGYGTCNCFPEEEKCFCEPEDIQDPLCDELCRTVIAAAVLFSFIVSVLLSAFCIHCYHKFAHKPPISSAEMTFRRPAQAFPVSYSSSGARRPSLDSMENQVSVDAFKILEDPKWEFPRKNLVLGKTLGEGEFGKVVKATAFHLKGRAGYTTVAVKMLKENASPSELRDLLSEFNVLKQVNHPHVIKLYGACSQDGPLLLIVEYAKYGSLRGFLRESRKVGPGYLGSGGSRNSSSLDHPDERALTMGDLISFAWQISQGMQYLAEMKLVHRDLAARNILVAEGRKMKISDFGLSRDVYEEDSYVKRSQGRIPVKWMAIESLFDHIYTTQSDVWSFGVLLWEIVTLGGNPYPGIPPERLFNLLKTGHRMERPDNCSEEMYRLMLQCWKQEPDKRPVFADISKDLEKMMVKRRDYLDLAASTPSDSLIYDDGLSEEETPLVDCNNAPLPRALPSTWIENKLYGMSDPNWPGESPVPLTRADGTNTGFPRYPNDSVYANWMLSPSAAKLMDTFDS
How it was run: as §1

[12] = target: T12, TAOK1 (Homo sapiens, UniProt Q7L7X3)
T12 construct: purchased Ambit (DiscoverX) KINOMEscan; Cerep
How it was run: as §1

[13] = target: T13, TBK1 (Homo sapiens, UniProt Q9UHD2)
T13 construct: purchased Ambit (DiscoverX) KINOMEscan; Cerep
How it was run: as §1

[14] = target: T14, PKMYT1 (Homo sapiens, UniProt Q99640)
T14 construct: purchased Ambit (DiscoverX) KINOMEscan; Cerep
How it was run: as §1

[15] = target: T15, ABL2 (Homo sapiens, UniProt P42684)
T15 construct: purchased Ambit (DiscoverX) KINOMEscan; Cerep
How it was run: as §1

[16] = target: T16, EPHA7 (Homo sapiens, UniProt Q15375)
T16 construct: purchased Ambit (DiscoverX) KINOMEscan; Cerep
How it was run: as §1

[17] = target: T17, EPHA3 (Homo sapiens, UniProt P29320)
T17 construct: purchased Ambit (DiscoverX) KINOMEscan; Cerep
T17 sequence (P29320 21-983): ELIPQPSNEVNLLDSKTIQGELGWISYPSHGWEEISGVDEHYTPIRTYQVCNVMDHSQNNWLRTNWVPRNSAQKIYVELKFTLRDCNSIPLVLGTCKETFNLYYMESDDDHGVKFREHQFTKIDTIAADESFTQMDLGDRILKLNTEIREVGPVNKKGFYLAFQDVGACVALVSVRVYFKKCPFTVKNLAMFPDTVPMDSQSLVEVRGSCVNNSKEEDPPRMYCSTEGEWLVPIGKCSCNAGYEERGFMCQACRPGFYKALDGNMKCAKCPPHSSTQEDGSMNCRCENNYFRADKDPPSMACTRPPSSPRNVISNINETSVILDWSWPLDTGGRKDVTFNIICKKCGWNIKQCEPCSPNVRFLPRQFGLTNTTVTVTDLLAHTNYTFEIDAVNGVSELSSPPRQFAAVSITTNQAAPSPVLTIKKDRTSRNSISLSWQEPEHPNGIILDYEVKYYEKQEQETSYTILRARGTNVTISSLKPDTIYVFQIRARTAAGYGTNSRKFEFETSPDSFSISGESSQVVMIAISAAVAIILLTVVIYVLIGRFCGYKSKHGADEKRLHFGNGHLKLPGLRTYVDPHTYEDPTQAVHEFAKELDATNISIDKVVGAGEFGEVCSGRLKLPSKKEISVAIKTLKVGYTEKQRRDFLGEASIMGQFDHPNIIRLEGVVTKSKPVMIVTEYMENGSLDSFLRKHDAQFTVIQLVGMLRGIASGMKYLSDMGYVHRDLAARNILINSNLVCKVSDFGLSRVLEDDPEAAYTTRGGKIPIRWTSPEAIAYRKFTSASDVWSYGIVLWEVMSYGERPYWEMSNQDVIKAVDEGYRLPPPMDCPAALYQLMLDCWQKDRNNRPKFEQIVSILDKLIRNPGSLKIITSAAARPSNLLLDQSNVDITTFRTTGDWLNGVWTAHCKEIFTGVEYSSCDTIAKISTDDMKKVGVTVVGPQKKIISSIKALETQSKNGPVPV
How it was run: as §1

[18] = target: T18, PHKG2 (Homo sapiens, UniProt P15735)
T18 construct: purchased Ambit (DiscoverX) KINOMEscan; Cerep
How it was run: as §1

[19] = target: T19, SRC (Homo sapiens, UniProt P12931)
T19 construct: purchased Ambit (DiscoverX) KINOMEscan; Cerep
How it was run: as §1

[20] = target: T20, DMPK2 (Homo sapiens, UniProt Q6DT37)
T20 construct: purchased Ambit (DiscoverX) KINOMEscan; Cerep
How it was run: as §1

[21] = target: T21, CSNK1g3 (Homo sapiens, UniProt Q9Y6M4)
T21 construct: purchased Ambit (DiscoverX) KINOMEscan; Cerep
T21 sequence (Q9Y6M4 whole entry): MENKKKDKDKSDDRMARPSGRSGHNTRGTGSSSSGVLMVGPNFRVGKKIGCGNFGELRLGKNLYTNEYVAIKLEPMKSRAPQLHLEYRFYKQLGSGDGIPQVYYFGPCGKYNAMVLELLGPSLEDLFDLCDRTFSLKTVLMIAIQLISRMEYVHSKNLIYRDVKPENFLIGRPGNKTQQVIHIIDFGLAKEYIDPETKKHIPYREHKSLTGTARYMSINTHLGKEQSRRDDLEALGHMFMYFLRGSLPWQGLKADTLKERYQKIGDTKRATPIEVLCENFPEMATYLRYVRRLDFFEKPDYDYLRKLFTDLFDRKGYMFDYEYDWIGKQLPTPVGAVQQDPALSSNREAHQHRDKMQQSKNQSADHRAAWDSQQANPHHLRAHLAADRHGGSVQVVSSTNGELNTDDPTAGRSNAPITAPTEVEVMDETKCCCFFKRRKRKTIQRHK
How it was run: as §1

[22] = target: T22, EPHA4 (Homo sapiens, UniProt P54764)
T22 construct: purchased Ambit (DiscoverX) KINOMEscan; Cerep
How it was run: as §1

[23] = target: T23, SRPK3 (Homo sapiens, UniProt Q9UPE1)
T23 construct: purchased Ambit (DiscoverX) KINOMEscan; Cerep
How it was run: as §1

[24] = target: T24, DRAK2 (Homo sapiens, UniProt O94768)
T24 construct: purchased Ambit (DiscoverX) KINOMEscan; Cerep
How it was run: as §1

[25] = target: T25, EPHA6 (Homo sapiens, UniProt Q9UF33)
T25 construct: purchased Ambit (DiscoverX) KINOMEscan; Cerep
How it was run: as §1

[26] = target: T26, TEC (Homo sapiens, UniProt P42680)
T26 construct: purchased Ambit (DiscoverX) KINOMEscan; Cerep
How it was run: as §1

[27] = target: T27, CDK2 (Homo sapiens, UniProt P24941)
T27 construct: purchased Ambit (DiscoverX) KINOMEscan; Cerep
How it was run: as §1

[28] = target: T28, PRKCH (Homo sapiens, UniProt P24723)
T28 construct: purchased Ambit (DiscoverX) KINOMEscan; Cerep
How it was run: as §1

[29] = target: T29, MUSK (Homo sapiens, UniProt O15146)
T29 construct: purchased Ambit (DiscoverX) KINOMEscan; Cerep
How it was run: as §1

[30] = target: T30, HIPK2 (Homo sapiens, UniProt Q9H2X6)
T30 construct: purchased Ambit (DiscoverX) KINOMEscan; Cerep
How it was run: as §1

[31] = target: T31, SYK (Homo sapiens, UniProt P43405)
T31 construct: purchased Ambit (DiscoverX) KINOMEscan; Cerep
How it was run: as §1

[32] = target: T32, JNK3 (Homo sapiens, UniProt P53779)
T32 construct: purchased Ambit (DiscoverX) KINOMEscan; Cerep
T32 sequence (P53779 whole entry): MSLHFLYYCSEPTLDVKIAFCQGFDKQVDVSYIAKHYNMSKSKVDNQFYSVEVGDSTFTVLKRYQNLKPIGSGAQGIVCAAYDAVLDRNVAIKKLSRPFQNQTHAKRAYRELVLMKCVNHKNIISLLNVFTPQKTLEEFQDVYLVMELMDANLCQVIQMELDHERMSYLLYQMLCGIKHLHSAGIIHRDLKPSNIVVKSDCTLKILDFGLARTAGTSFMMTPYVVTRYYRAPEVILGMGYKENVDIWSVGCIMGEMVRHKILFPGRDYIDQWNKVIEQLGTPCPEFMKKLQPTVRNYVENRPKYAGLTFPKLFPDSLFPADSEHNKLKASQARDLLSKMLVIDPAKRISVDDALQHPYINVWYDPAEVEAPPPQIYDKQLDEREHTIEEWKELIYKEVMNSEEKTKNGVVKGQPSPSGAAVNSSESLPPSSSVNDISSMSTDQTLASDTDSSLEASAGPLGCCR
How it was run: as §1

[33] = target: T33, RPS6KA5(Kin.Dom.1-N-term) (Homo sapiens, UniProt O75582)
T33 construct: RPS6KA5(Kin.Dom.1-N-term); purchased Ambit (DiscoverX) KINOMEscan; Cerep
How it was run: as §1

[34] = target: T34, ALK (Homo sapiens, UniProt Q9UM73)
T34 construct: purchased Ambit (DiscoverX) KINOMEscan; Cerep
T34 sequence (Q9UM73 19-1620): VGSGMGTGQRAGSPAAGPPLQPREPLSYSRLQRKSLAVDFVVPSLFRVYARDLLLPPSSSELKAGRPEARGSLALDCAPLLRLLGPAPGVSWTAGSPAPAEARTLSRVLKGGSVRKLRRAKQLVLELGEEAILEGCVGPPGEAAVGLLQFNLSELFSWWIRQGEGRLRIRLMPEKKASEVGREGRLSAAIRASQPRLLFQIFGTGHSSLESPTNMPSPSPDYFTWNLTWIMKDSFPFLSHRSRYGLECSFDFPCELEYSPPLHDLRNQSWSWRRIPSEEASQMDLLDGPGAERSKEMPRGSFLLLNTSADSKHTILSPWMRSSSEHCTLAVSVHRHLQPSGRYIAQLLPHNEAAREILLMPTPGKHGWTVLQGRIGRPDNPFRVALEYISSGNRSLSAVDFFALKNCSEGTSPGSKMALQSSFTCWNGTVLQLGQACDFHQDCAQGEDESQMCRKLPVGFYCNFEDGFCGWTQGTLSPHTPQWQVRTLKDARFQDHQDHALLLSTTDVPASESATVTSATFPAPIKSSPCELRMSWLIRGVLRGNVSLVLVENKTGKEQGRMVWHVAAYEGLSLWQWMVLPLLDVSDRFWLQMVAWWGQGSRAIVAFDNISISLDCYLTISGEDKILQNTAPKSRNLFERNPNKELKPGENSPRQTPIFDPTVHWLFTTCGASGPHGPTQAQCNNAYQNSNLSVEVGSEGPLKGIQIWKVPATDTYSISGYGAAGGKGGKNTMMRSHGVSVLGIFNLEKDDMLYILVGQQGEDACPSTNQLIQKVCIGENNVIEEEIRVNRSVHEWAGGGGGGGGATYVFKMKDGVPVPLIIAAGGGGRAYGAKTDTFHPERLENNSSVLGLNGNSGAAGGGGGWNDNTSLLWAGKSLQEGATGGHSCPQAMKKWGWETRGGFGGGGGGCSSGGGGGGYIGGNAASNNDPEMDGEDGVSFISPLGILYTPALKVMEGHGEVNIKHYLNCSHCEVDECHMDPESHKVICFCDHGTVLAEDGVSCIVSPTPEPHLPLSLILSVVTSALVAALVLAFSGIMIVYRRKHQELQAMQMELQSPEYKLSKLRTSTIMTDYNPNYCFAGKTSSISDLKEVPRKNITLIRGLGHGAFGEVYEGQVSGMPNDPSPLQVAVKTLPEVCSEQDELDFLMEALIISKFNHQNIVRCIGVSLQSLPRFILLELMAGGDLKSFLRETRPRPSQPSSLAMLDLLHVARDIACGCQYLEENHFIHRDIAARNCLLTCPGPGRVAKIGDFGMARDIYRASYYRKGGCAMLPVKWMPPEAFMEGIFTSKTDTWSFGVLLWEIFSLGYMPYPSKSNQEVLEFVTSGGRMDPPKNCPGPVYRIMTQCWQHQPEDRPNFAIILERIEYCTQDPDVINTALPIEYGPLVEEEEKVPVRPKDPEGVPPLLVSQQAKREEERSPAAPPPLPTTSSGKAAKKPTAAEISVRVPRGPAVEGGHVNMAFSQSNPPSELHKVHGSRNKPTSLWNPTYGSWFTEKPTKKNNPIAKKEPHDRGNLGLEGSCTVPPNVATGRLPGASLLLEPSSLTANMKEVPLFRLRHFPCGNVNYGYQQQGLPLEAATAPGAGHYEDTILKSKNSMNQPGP
How it was run: as §1

Question: Which results are given for `CCCCN1CCN(C(=N)c2cccc(NC(=O)Nc3ccc(S(=O)(=O)NCc4ccc(S(N)(=O)=O)cc4)cc3)c2)CC1` [SC81458, 4-(3-(3-((4-butylpiperazin-1-yl)(imino)methyl)phenyl)ureido)-N-(4-sulfamoylbenzyl) benzenesulfonamide]?
Answer: remaining binding at 10 µM [1]: 100%; remaining binding at 10 µM [2]: 93%; remaining binding at 10 µM [3]: 82%; remaining binding at 10 µM [4]: 100%; remaining binding at 10 µM [5]: 100%; remaining binding at 10 µM [6]: 100%; remaining binding at 10 µM [7]: 100%; remaining binding at 10 µM [8]: 100%; remaining binding at 10 µM [9]: 93%; remaining binding at 10 µM [10]: 91%; remaining binding at 10 µM [11]: 89%; remaining binding at 10 µM [12]: 100%; remaining binding at 10 µM [13]: 100%; remaining binding at 10 µM [14]: 90%; remaining binding at 10 µM [15]: 77%; remaining binding at 10 µM [16]: 81%; remaining binding at 10 µM [17]: 100%; remaining binding at 10 µM [18]: 100%; remaining binding at 10 µM [19]: 81%; remaining binding at 10 µM [20]: 100%; remaining binding at 10 µM [21]: 100%; remaining binding at 10 µM [22]: 98%; remaining binding at 10 µM [23]: 83%; remaining binding at 10 µM [24]: 88%; remaining binding at 10 µM [25]: 92%; remaining binding at 10 µM [26]: 90%; remaining binding at 10 µM [27]: 100%; remaining binding at 10 µM [28]: 92%; remaining binding at 10 µM [29]: 95%; remaining binding at 10 µM [30]: 100%; remaining binding at 10 µM [31]: 100%; remaining binding at 10 µM [32]: 100%; remaining binding at 10 µM [33]: 96%; remaining binding at 10 µM [34]: 100%
